Values quoted from earlier work as cited in patent publication US20220127231A1, “PROCESS FOR THE PREPARTION OF AMIFAMPRIDINE PHOSPHATE” (SHILPA MEDICARE LTD, priority 2020, published 2022).

Legend:
[1] = 1% solution in water at 25° C.

solubility in dimethyl sulfoxide (dimethyl sulfoxide): slightly soluble
solubility in dimethylformamide (dimethylformamide): very slightly soluble
solubility in ethanol (ethanol): very slightly soluble
solubility in glacial acetic acid (glacial acetic acid): slightly soluble
solubility in methanol (methanol): slightly soluble
solubility in water (water): practically soluble
pH of 1% solution in water [1]: 4.6±0.2
SMILES: Nc1ccncc1N [Amifampridine phosphate]
